Assay results taken from paper PMC10093841 (International Journal of Molecular Sciences, 2023).
“Also recorded” adds a separate entry of the source. Like-named read-outs stand apart in the source and are kept apart here.

How the values were obtained:
[1] = target: T1, acetylcholinesterase (AChE) type VI-S from Electrophorus electricus (Electrophorus electricus, UniProt O42275); test: Cholinesterase inhibition, Ellman's colorimetric method (AChE); assay type: biochemical
T1 construct: purchased Sigma-Aldrich
Description: (§1) Anti-GAPDH antibody and enhanced chemiluminescence reagents were purchased from Santa Cruz Biotechnology (Santa Cruz, CA, USA); horseradish peroxidase-conjugated secondary antibody was purchased from Amersham Biosciences (Pittsburgh, PA, USA). Nitrocellulose was purchased from Biorad (Hercules, CA, USA).
(§2) The cholinesterase inhibition was evaluated by Ellman’s colorimetric method with some modifications. Briefly, in a total volume of 1 mL, 415 µL of Tris-HCl buffer 0.1 M (pH 8), 10 µL of a buffer solution of carvacrol or p-cymene (in methanol) at different concentrations (100, 10, 1 and 0.1 µg/mL), and 25 µL of a solution containing 0.28 U/mL of AChE (or BChE) were incubated for 15 min at 37 °C. […] The absorbance was measured at 405 nm in a spectrophotometer (Thermo Scientific Multiskan GO, Monza, Italy).
(§3) The percent inhibition of enzyme activity for acetylcholinesterase, butyrylcholinesterase, and α-amylase was calculated by comparison with the absorbance of the control without sample, following the formula: % = [(A0 − A1)/A0] × 100(1) where A0 is the absorbance of the control without the sample and A1 is the absorbance of the sample.

[2] = target: T2, porcine pancreatic amylase (Sus scrofa, UniProt P00690); test: biochemical
T2 construct: purchased Sigma-Aldrich
Description: as §1, §3

[3] = Hydrogen peroxide scavenging assay (1,10-phenanthroline); details: cell-free, concentration range 0–1000 μg/mL
Description: Briefly, 0.25 mL of ferrous ammonium sulfate (1 mM) solution was mixed with 1.5 mL of different concentrations (from 6 to 500 μg/mL) of carvacrol, p-cymene; acid gallic was used as a positive control. Then, 62.5 µL of H2O2 (5 mM) was added and the mixture was incubated at room temperature in the dark for 5 min. Then, 1.5 mL of 1,10-phenanthroline (1 mM) was added to each tube, mixed, and incubated for 10 min at room temperature. Finally, the absorbance was measured at 510 nm through a spectrophotometer (Thermo Scientific Multiskan GO, Monza, Italy).

[4] = target: T3, butyrylcholinesterase (BChE) from equine serum (Equus caballus, UniProt P81908); test: biochemical
T3 construct: purchased Sigma-Aldrich; host or cells: equine serum
Description: as §1, §2, §3

[5] = test system: AChE; details: carvacrol stronger than its isomer thymol; cited from earlier work
[6] = test system: caspase-3 in SH-SY5Y cells; test: Caspase-3 expression (Western blot) in H2O2-induced stress; assay type: cell-based, Human; details: pretreatment 50 μg/mL for 22 h, then H2O2 100 or 200 μM for 2 h
Description: To investigate the neuroprotective effects of carvacrol and p-cymene on H2O2-induced stress in SH-SY5Y cells, the cells were assigned to a total of nine groups: Group 1: control (untreated cells); Groups 2 and 3, cells treated with H2O2 alone, at 100 and 200 μM for two h; Groups 4–5: cells treated with carvacrol or p-cymene MNTD (50 µg/mL) Groups 6–9: cells pretreated with carvacrol or p-cymene MNTD for 22 h and then exposed to H2O2 at 100 and 200 μM for another two h. After the cell lysis, we determined the caspase-3 activity. For caspase-3 activity analysis, the SH-SY5Y cells (1 × 10^4) were seeded in separate wells in 12-well plates (Corning, Inc., Corning, NY, USA). The cells were allowed to reach 70–80% confluency before the treatment groups were initiated. The cells were collected after 24 h and lysed using the Laemmli buffer to extract total proteins. For Western blot analysis, an aliquot of total protein was run on 10% SDS-PAGE gel and transferred to nitrocellulose. […] Immunoreactivity was detected through a sequential incubation with horseradish peroxidase-conjugated secondary antibody and enhanced chemiluminescence reagents. Each band density was measured using ImageJ software (WS Rasband, Image J, NIH, Bethesda, MD, USA).

[7] = test system: BChE; design: method as in doi:10.1007/s10068-015-0093-0; details: at a concentration of 2 mg/mL; cited from earlier work

T2 sequence (P00690 16-511): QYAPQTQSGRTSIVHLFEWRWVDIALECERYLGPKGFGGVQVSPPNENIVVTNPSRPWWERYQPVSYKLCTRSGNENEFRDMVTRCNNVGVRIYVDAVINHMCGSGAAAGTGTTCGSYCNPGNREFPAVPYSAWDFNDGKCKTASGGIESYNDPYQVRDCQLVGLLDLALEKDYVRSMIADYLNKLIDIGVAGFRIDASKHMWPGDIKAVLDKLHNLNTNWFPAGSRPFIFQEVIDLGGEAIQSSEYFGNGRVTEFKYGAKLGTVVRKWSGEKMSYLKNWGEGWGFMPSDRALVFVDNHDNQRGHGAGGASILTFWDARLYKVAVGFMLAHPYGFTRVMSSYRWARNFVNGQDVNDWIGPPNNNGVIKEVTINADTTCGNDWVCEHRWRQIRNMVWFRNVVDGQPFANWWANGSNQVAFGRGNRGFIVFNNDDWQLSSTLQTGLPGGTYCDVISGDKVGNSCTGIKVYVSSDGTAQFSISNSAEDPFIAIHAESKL
T1 sequence (O42275 24-633): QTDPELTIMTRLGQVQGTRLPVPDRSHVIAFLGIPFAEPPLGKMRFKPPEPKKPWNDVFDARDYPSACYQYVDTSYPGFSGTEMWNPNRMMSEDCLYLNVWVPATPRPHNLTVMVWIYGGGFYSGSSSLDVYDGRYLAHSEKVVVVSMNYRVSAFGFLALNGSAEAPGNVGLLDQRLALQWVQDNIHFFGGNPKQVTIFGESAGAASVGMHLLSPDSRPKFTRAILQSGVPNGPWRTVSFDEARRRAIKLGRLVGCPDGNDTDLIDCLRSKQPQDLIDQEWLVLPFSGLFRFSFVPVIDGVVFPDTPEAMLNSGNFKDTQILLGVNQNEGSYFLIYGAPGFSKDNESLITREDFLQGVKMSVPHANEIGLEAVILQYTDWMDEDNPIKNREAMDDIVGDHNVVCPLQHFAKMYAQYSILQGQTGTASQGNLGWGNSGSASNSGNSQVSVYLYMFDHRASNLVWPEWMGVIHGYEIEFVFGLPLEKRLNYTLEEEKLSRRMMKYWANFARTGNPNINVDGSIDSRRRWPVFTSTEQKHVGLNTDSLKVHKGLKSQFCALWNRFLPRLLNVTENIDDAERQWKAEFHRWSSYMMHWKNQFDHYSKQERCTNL
T3 sequence (P81908 whole entry): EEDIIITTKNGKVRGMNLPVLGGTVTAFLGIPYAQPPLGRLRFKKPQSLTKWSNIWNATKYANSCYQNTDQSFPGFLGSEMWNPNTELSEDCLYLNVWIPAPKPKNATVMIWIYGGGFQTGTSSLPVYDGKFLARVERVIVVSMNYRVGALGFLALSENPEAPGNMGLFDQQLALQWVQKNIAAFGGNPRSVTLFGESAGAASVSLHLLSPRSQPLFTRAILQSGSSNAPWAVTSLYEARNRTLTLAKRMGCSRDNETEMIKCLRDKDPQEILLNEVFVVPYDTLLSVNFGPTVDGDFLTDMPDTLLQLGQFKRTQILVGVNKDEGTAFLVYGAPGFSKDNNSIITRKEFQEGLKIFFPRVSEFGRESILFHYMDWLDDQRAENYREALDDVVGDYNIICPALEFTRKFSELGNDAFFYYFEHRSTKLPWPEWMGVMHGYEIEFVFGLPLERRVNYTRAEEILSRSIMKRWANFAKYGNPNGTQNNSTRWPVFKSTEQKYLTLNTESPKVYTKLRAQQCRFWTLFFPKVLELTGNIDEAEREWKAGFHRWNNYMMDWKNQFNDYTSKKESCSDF

Q: For `Cc1ccc(C(C)C)cc1O` [Carvacrol], which IC50 [1] is on record?
A: 25.3 µM

Q: And the IC50 ([2]; read-out: IC50 α-Amylase (converted))?
A: 1140 µM

Q: What about the H2O2 scavenging activity [3] of the same compound?
A: more active than p-cymene

Q: And the IC50 ([4]; concentration required to reduce the enzymatic activity by 50%, read-out: IC50 BChE (converted))?
A: 218 µM

Q: What about the “inhibitory effect relative to thymol” value [5] of the same compound?
A: 10 times

Q: And the caspase-3 expression [6]?
A: reduced; also recorded: caspase-3 was inhibited

Q: For `Cc1ccc(C(C)C)cc1` [p-Cymene], which IC50 [1] is on record?
A: 113 µM

Q: And the IC50 [2]?
A: 1600 µM

Q: What about the IC50 [4] of the same compound?
A: 10800 µM

Q: Which “inhibition of BChE activity” value [7] does the source give for `Cc1ccc(C(C)C)c(O)c1` [Thymol] here?
A: 42.2%
